Test system: NOMO1
Assay: cell viability relative to DMSO control; higher = less cytotoxic
Settings: 48 h
Method in brief: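 Three leukemia lines were tested: NOMO1 and SEM at 500 cells/well and P12-Ichikawa at 1000 cells/well. Each was adapted for at least four passages in each medium and seeded in 5 μl in 1536-well plates, and library compounds in DMSO were pin-dosed from 47 μM to 0.79 nM in 11 threefold steps. After 48 h at 37°C, CellTiter-Glo One luminescence was read. Viability is a percentage relative to DMSO wells on each plate, with cell-free wells as background.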

[1] = HPLM + 10% dialyzed FBS, 0.000781 µM
[2] = HPLM + 10% dialyzed FBS, 0.00234 µM
[3] = HPLM + 10% dialyzed FBS, 0.00702 µM
[4] = HPLM + 10% dialyzed FBS, 0.0211 µM
[5] = HPLM + 10% dialyzed FBS, 0.0632 µM
[6] = HPLM + 10% dialyzed FBS, 0.19 µM
[7] = HPLM + 10% dialyzed FBS, 0.569 µM
[8] = HPLM + 10% dialyzed FBS, 1.71 µM
[9] = HPLM + 10% dialyzed FBS, 5.12 µM
[10] = HPLM + 10% dialyzed FBS, 15.4 µM
[11] = HPLM + 10% dialyzed FBS, 46.1 µM
[12] = RPMI 5 mM glucose + 10% FBS, 0.000781 µM
[13] = RPMI 5 mM glucose + 10% FBS, 0.00234 µM
[14] = RPMI 5 mM glucose + 10% FBS, 0.00702 µM
[15] = RPMI 5 mM glucose + 10% FBS, 0.0211 µM
[16] = RPMI 5 mM glucose + 10% FBS, 0.0632 µM
[17] = RPMI 5 mM glucose + 10% FBS, 0.19 µM
[18] = RPMI 5 mM glucose + 10% FBS, 0.569 µM
[19] = RPMI 5 mM glucose + 10% FBS, 1.71 µM
[20] = RPMI 5 mM glucose + 10% FBS, 5.12 µM
[21] = RPMI 5 mM glucose + 10% FBS, 15.4 µM
[22] = RPMI 5 mM glucose + 10% FBS, 46.1 µM
[23] = RPMI 5 mM glucose + 10% dialyzed FBS, 0.000781 µM
[24] = RPMI 5 mM glucose + 10% dialyzed FBS, 0.00234 µM
[25] = RPMI 5 mM glucose + 10% dialyzed FBS, 0.00702 µM
[26] = RPMI 5 mM glucose + 10% dialyzed FBS, 0.0211 µM
[27] = RPMI 5 mM glucose + 10% dialyzed FBS, 0.0632 µM
[28] = RPMI 5 mM glucose + 10% dialyzed FBS, 0.19 µM
[29] = RPMI 5 mM glucose + 10% dialyzed FBS, 0.569 µM
[30] = RPMI 5 mM glucose + 10% dialyzed FBS, 1.71 µM
[31] = RPMI 5 mM glucose + 10% dialyzed FBS, 5.12 µM
[32] = RPMI 5 mM glucose + 10% dialyzed FBS, 15.4 µM
[33] = RPMI 5 mM glucose + 10% dialyzed FBS, 46.1 µM

SMILES | cell viability [1] | cell viability [2] | cell viability [3] | cell viability [4] | cell viability [5] | cell viability [6] | cell viability [7] | cell viability [8] | cell viability [9] | cell viability [10] | cell viability [11] | cell viability [12] | cell viability [13] | cell viability [14] | cell viability [15] | cell viability [16] | cell viability [17] | cell viability [18] | cell viability [19] | cell viability [20] | cell viability [21] | cell viability [22] | cell viability [23] | cell viability [24] | cell viability [25] | cell viability [26] | cell viability [27] | cell viability [28] | cell viability [29] | cell viability [30] | cell viability [31] | cell viability [32] | cell viability [33]
CC[C@]12CC[C@H]3[C@@H](CCC/4=C/C(=O)CC[C@H]34)[C@@H]1\C=C/[C@@]2(O)C#C | 118% | 116% | 132% | 133% | 128% | 113% | 137% | 146% | 133% | 138% | 124% | 110% | 120% | 120% | 123% | 122% | 138% | 133% | 121% | 112% | 130% | 139% | 116% | 133% | 122% | 124% | 126% | 111% | 137% | 133% | 138% | 140% | 132%
CNCC(O)c1ccc(O)cc1 (centres undefined) | 114% | 106% | 116% | 103% | 116% | 125% | 129% | 109% | 128% | 113% | 134% | 96.7% | 104% | 118% | 116% | 112% | 103% | 125% | 118% | 127% | 120% | 121% | 106% | 122% | 109% | 119% | 104% | 118% | 108% | 113% | 125% | 130% | 120%
C[S+](=O)([O-])Nc1ccc([N+](=O)[O-])cc1Oc1ccccc1 | 121% | 127% | 118% | 96.4% | 121% | 116% | 122% | 107% | 103% | 101% | 70.8% | 109% | 98.4% | 104% | 110% | 108% | 93.5% | 104% | 96.7% | 101% | 98.1% | 60.6% | 103% | 116% | 96% | 112% | 101% | 112% | 98.2% | 106% | 110% | 112% | 47.1%
N[S+]([O-])(=O)C1=CC=C(NC/2=C/C(=O)C3=CC=CC=C3C2=O)C=C1 | 100% | 126% | 111% | 132% | 119% | 121% | 134% | 111% | 93.2% | 100% | 85.4% | 121% | 123% | 131% | 151% | 131% | 147% | 129% | 132% | 126% | 123% | 102% |  |  |  |  |  |  |  |  |  |  | 
CCOC(=O)N1CCN(/[N+]([O-])=N/Oc2ccc([N+](=O)[O-])cc2C#N)CC1 | 118% | 99.3% | 109% | 110% | 135% | 114% | 117% | 97.1% | 39.5% | 39.6% | 36.1% | 98.4% | 97.4% | 114% | 105% | 102% | 105% | 122% | 120% | 24.5% | 24.6% | 18.2% | 92.8% | 106% | 129% | 111% | 126% | 115% | 118% | 108% | 30.8% | 24.6% | 18.3%
COc1ccccc1OCC(O)COC(N)=O (centres undefined) | 79.5% | 104% | 108% | 119% | 127% | 116% | 122% | 119% | 130% | 125% | 6.3% | 102% | 98.1% | 102% | 113% | 109% | 98% | 119% | 103% | 114% | 119% | 113% | 94.7% | 109% | 111% | 105% | 116% | 119% | 102% | 107% | 122% | 108% | 100%
C[C@]12COC(=O)C[C@@H]1CC[C@@H]1[C@@H]2CC[C@@]2(C)[C@H]1CC[C@]2(C)O | 98% | 109% | 103% | 91.1% | 118% | 98% | 98.6% | 103% | 104% | 97.1% | 80% | 90.7% | 87.1% | 86.4% | 97.3% | 101% | 103% | 95.1% | 101% | 90.8% | 81.2% | 84.1% | 97.6% | 101% | 91.4% | 102% | 103% | 92.2% | 78.2% | 92% | 88.3% | 92.4% | 83.1%
O=C(C=CC#Cc1cccc(N[S+](=O)([O-])c2ccccc2)c1)NO | 116% | 121% | 116% | 131% | 137% | 142% | 126% | 107% | 36.1% | 7.6% | 3.17% | 124% | 123% | 109% | 138% | 119% | 129% | 135% | 117% | 41.9% | 7.03% | 3.62% |  |  |  |  |  |  |  |  |  |  | 
O=C(O)C1(Cc2cccc(Nc3nccs3)n2)CCC(Oc2cccc(Cl)c2F)CC1 (centres undefined) | 98.9% | 116% | 117% | 108% | 104% | 116% | 120% | 69.6% | 45.3% | 34.2% | 35.5% | 110% | 96.2% | 99.5% | 91.9% | 106% | 102% | 96.9% | 74.1% | 43.7% | 31.8% | 23.2% | 107% | 104% | 98.8% | 104% | 105% | 105% | 102% | 72% | 50.4% | 34.4% | 34%
c1ccc(CCCN2CCN(CCOC(c3ccccc3)c3ccccc3)CC2)cc1 | 91.4% | 95.1% | 101% | 100% | 85% | 100% | 92.9% | 103% | 83.1% | 78.9% | 53.9% | 80.3% | 83.3% | 96% | 99.5% | 94.9% | 90.3% | 85.6% | 76.1% | 83.3% | 78% | 73.8% | 89.3% | 97.3% | 92.7% | 96.5% | 89.7% | 92.5% | 85.5% | 86.2% | 86.3% | 66.8% | 24.3%
C[C@H]1C[C@@H]2[C@H](CC[C@@]3(C)[C@H]2CC[C@]3(OC(C)=O)C(C)=O)[C@@]\4(C)CCC(=O)\C=C14 | 95.2% | 112% | 116% | 112% | 119% | 110% | 125% | 123% | 120% | 81.3% | 118% | 103% | 103% | 103% | 101% | 99.5% | 107% | 128% | 117% | 101% | 95.9% | 103% | 86.7% | 98.7% | 109% | 88.5% | 101% | 98.8% | 104% | 98% | 103% | 88.7% | 112%
COC(=O)C[C@](O)(CCCC(C)(C)O)C(=O)O[C@@H]1C(OC)=CC23CCCN2CCc2cc4c(cc2[C@H]13)OCO4 (some centres undefined) | 114% | 111% | 105% | 108% | 118% | 107% | 117% | 97.1% | 96% | 105% | 96.6% | 97.1% | 93.4% | 96.3% | 102% | 107% | 98.4% | 105% | 101% | 88.4% | 93.6% | 90.1% | 102% | 105% | 104% | 111% | 108% | 109% | 101% | 100% | 102% | 103% | 97.8%
CC[S+](=O)([O-])c1cccc(-c2cc(C(=O)NC3CCN(C)CC3)c(C)c3[nH]c4ncc(C)cc4c23)c1 | 118% | 128% | 120% | 136% | 126% | 89.9% | 115% | 68.2% | 52.6% | 51% | 6.96% | 114% | 115% | 114% | 135% | 128% | 111% | 77.3% | 83.9% | 92.6% | 47% | 8.64% | 124% | 122% | 130% | 128% | 138% | 87.7% | 80.7% | 86.8% | 80.3% | 48.3% | 8.02%
O=C(Nc1cccc(C(F)(F)F)c1)Nc1cc([S+](=O)([O-])NC2CC2)ccc1-c1ccsc1 |  |  |  |  |  |  |  |  |  |  |  | 111% | 99.2% | 102% | 105% | 104% | 97.7% | 105% | 109% | 105% | 96% | 16.5% |  |  |  |  |  |  |  |  |  |  | 
CCN(CC)CCCCNc1ncc2cc(-c3cc(OC)cc(OC)c3)c(NC(=O)NC(C)(C)C)nc2n1 | 122% | 136% | 125% | 113% | 111% | 108% | 94.8% | 86.8% | 104% | 83.8% | 33.2% |  |  |  |  |  |  |  |  |  |  |  |  |  |  |  |  |  |  |  |  |  | 

Reference: the supplement of paper PMC11451515
